Source: patent US9156824B2, “CDC7 inhibitors” (Eli Lilly and Company, priority 2013, dated 2015)

System: phosphorylated MCM2 at Serine 53 (pMCM2-S53) in H1299 cells
Assay: Acumen imaging assay for detection of phosphorylated MCM2 in H1299 cells
Type: cell-based
Conditions: 4 hours treatment, Hydrate, read-out: IC50, inhibition of pMCM2-S53
Experimental: The Acumen® eX3 is used to determine the effect of compounds on the formation of endogenous phosphorylated MCM2 at Serine 53 (pMCM2-S53). Phosphorylation of MCM2 by CDC7 is determined using specific anti-pMCM2-S53 antibody and quantified with fluorescent tagged secondary antibodies by Acumen® eX3 to monitor CDC7 activity in cells. Phosphorylation of MCM2 at Serine 53 is known to be correlated to CDC7 inhibition.
H1299 cells (ATCC #CRL-5803) are maintained in RPMI-1640 (Hyclone SH30809.01) growth medium supplemented with 10% FBS. Cells are harvested using standard cell culture procedures and then counted using Vi-Cell XR Cell Viability Analyzer (Beckman Counter). 3000-6000 H1299 cells in 100 μL of growth medium are plated into each well of Biocoat Poly-D-Lysine 96-well black/clear plate with flat bottom BioCoat™ Multiwell (Becton Dickinson) cell culture plates 356640 and incubated overnight at 37° C., 5% CO2.
Cells are treated with the test compound (50 μL/well) diluted in medium containing 0.6% DMSO and incubated for 4 hours at 37° C. To each well is added 7.4% formaldehyde (150 μL) diluted with PBS from 37% formaldehyde stock and the plates are incubated at room temperature for 30 minutes. Formaldehyde is removed and cold methanol (100 μL) is added. The plates are incubated for 20 minutes at 4° C. to permeabilize the cells. Plates are washed 3× with 100 μL/well of PBS. […] The plates are sealed with black seal and are read on the Acumen® eX3 (TTP LABTECH) using optical filter 500-530 nanometer and 575-640 nanometer for Alexa Fluor 488 and propidium iodide, respectively. The number of pMCM2-S53 positive cells is normalized to total cells for each well and are calculated as percent inhibition relative to on-plate controls. […]

In the case of `CC1(c2ncncc2F)NC(=O)c2cc(-c3cn[nH]c3)ccc21` (single isomer, unassigned; isomer 2) [Example 4, 3-(5-Fluoropyrimidin-4-yl)-3-methyl-6-(1H-pyrazol-4-yl)isoindolin-1-one, Isomer 2, Hydrate], the IC50 is reported as 290 nM.
